Test results: patent publication US20230081357A1, “TOPICAL COMPOSITION COMPRISING CANNABIDIOL” (CURALEAF INTERNATIONAL LIMITED, priority 2020, published 2023)

Experiments:
[1] = system: reconstituted human epidermis (RHE); assay: In vitro irritation test on reconstituted human epidermis, MTT cell viability; type: cell-based; conditions: 60 minutes treatment, 24 hours incubation, % of negative control, 25 μg CBD-S5 or 30 μL 5% SDS
Description: The in vitro test consists of a topical exposure of the test substance on reconstituted human epidermis (RHE) followed by a cell viability test.
Cell viability is determined by the conversion of MTT (3-(4,5-dimethylthiazol-2-yl)-2,5-diphenyltetrazolium bromide) to a formazan blue salt, which is quantitatively measured after extraction from tissue. Conversion occurs via the mitochondrial enzyme succinate dehydrogenase, which is only active in living cells, causing the MTT tetrazole ring to open and formazan to form. Assessment of the viability of tissues exposed to the test substance compared to the negative control (treated with Dulbecco's phosphate buffered saline—DPBS) and the positive control (treated with sodium dodecyl sulphate—SDS) is used to predict skin irritation potential.
The reconstructed human epidermis model consists of normal human-derived epidermal keratinocytes cultured to recreate a highly differentiated multilayered human epidermis. […]
The optical density of the extracted formazan is determined spectrophotometrically at a wavelength of 570 nm using the μQUANT BIO TEK Microplate Spectrophotometer. Relative cell viability is calculated for each tissue as % of the mean optical density of the negative control tissues.

[2] = system: IL-1α; assay: Particulate (PM2.5) resistance test, IL-1α release by ELISA; type: cell-based, human; conditions: sample alone, 24 h at 37° C.; 30 μl CBD-S5, 30 μl SDS 5% or 20 μg PM2.5; untreated RHE (NC) = 100%
Description: After incubation at 37° C. for 24 h in a controlled atmosphere of 5% CO2, the cell viability of the RHE sample was assessed by MTT assay, as described in Example 5A, while the culture medium was collected and analyzed for IL-1α release by ELISA assay, using an EMIL1ALPHA kit (Invitrogen-Thermo Scientific) with the following procedure.
100 μl of medium from each treatment was transferred to wells coated with anti-human IL-1α and incubated for 2 hours at room temperature. At the end of the incubation, the medium was removed and the wells were washed 4 times with 1× Wash Buffer. 100 μl of biotinylated antibody was added to each well and incubated for 1 hour at room temperature. At the end, the wells were washed 4 times with 1× Wash Buffer, treated with 100 μl of Streptavidin-HRP solution for 45 minutes at room temperature and finally washed 4 times with 1× Wash Buffer. 100 μl of TMB substrate was added to each well and incubated for 10 minutes in the dark. Finally, 100 μl of stop solution was added to each well and spectrophotometric readings were taken at wavelengths of 450 nm and 550 nm using the μQUANT BIO TEK Microplate Spectrophotometer instrument.
Changes in IL-1α levels released from the RHE tissue after each treatment were expressed as % values compared to the untreated RHE (NC) used as control (100%).

[3] = In vitro soothing efficacy, cell viability by MTT after SLS; type: cell-based; conditions: human; read-out: % mean cell viability (standard deviation)
Description: (§1) The assay assessed quantitatively the effects of the sample in protecting skin cells and in inhibiting the […] reaction caused by moderate irritating agents as sodium lauryl sulfate (SLS) by means of a multilayer in vitro skin cell model.
(§2) The inhibition of the SLS-induced release of IL-1α cytokine was investigated (through specific ELISA assay) following exposure to the tested substance and respect to skin untreated samples. Cell viability was determined by the MTT assay.
(§3) Both assays used a reconstructed artificial human skin model comprising normal human epidermal keratinocytes, growing as an integrated three-dimensional cell culture model, perfectly mimicking the human skin in vitro. […] The model was supplied by Episkin (Lion, Batch 20-RHE-041).
Epidermis was treated for 70 minutes with SLS at 0.30% in order to induce IL-1α synthesis and release. […] As negative control, two epidermis units were treated with phosphate buffer, while epidermis units treated for 70 minutes with SLS 0.30% were used as positive control. […]
Epidermis units were treated with 1 mg/ml MTT solution (3-[4,5-dimethylthiazol-2-yl]-2,5-diphenyl tetrazolium bromide) for 3 h at 37° C. […] Two aliquots of every sample were transferred to a 96 well plate for the reading. The absorbance (OD) was read at the wavelength of 570 nm with a colorimeter (Tecan model Infinite F200) equipped with a microplate reader. […]

[4] = system: human hair dermal papilla cells (HHDPCs); assay: Mitogenesis in hair bulb cells, cell viability by MTT after starving; type: cell-based; conditions: positive control (human insulin), % of negative control
Description: (§4) The test is carried out on human hair dermal papilla cells (HHDPCs) with fibroblast-like morphology. Cells are cultured in MEM containing 10% FBS and antibiotics.
(§5) Cells have been seeded in 24 wells plates and allowed to grow for 24 h at 37° C. and 5% CO2. Cells underwent starvation in serum-free medium for 6 hours before treatment.
(§6) The niosome dispersion was dissolved directly in the medium culture. The test was carried out in three replicates.
(§7) After 24- and 48-hours exposure the cell viability and the total cellular protein content were assessed on separate plates. Untreated cells were used as negative controls (NC); cells treated with human insulin were used as positive control (PC).
The cell viability was assessed by incubating the tissues for 2 hours with MTT (3-[4,5-dimethylthiazol-2-yl]-2,5-diphenyl tetrazolium bromide) solution. The precipitated formazan was then extracted using DMSO and quantified spectrophotometrically. The absorbance at 570 nm (OD570) was measured with a microplate reader (Tecan, Infinite 200 PRO), deducting background at 650 nm (OD650).
The cell viability was expressed in percentage terms according to the following formula: […]

[5] = system: IL-1α; assay: In vitro soothing efficacy, SLS-induced IL-1α release by ELISA; type: cell-based, human; conditions: SLS 0.30% for 70 minutes, then CBD-S5 diluted at 2%, positive control = SLS only
Description: as §1, §2, §3
Epidermis was treated for 70 minutes with SLS at 0.30% in order to induce IL-1α synthesis and release. […] As negative control, two epidermis units were treated with phosphate buffer, while epidermis units treated for 70 minutes with SLS 0.30% were used as positive control. Test was carried out in two replicates.
For IL-1α assay, the culture medium has been collected at 6 and 24 hours. […] IL-1α was determined in the medium culture of treated and not treated epidermis, using a direct ELISA test (Enzyme-linked immunosorbent assay). […] Samples were read at 450 nm. […]
Cytokine concentration was determined using a standard curve. […]

[6] = system: human hair dermal papilla cells (HHDPCs); assay: Mitogenesis in hair bulb cells, total cellular protein content (Bradford); type: cell-based; conditions: positive control (human insulin), % of negative control
Description: as §4, §5, §6, §7
The total cellular protein content was tested according to Bradford method. Cells at the end of the treatment were washed twice with PBS and lysed by treatment with purified water at 4° C. Dye reagent was added to each sample. […] Reading was made at 595 nm with a colorimeter equipped with a plate-reader.
To quantify proteins, a standard plot with albumin was designed and the sample concentrations were determined on the bases of their absorbance values using the interpolation plot formula. Mean values of every set of data were calculated, and for each sample the percentage of increase in the protein synthesis was determined by comparison with the negative control (NC) according to the following formula: […]

[7] = system: transfected rat basophil cells (RBL-2H3 ATCC® CRL-2256™) expressing the IgE human receptor (FcRI); assay: Anti-itch activity: basophil degranulation, β-hexosaminidase release; type: cell-based; conditions: for % degranulation inhibition: basophils activated with anti-IgE receptor
From the text: In vivo, a basophil cell degranulation mediated by IgE triggers an immediate allergic reaction characterized by the quick release of pre-stored inflammatory mediators (histamine, leukotrienes, thromboxane, basophilic enzymes, hexosaminidases), causing redness, rashes, itchiness and local inflammatory reactions. The ability of a composition to inhibit the degranulation of basophil cells is an indicator of its capability to inhibit the above described symptoms and above them mainly itching.
The test is carried out on a cell line of transfected rat basophil cells (RBL-2H3 ATCC® CRL-2256™) expressing the IgE human receptor (FcRI). Cells are kept in RPMI containing 10% FCS and 2 mM glutamine.
Untreated cells were used as negative control for the spontaneous degranulation.
A positive control consisting in cells exposed to anti-human IgE receptor antibodies was used to evaluate the maximal degranulation level.
Cell lysates in 1% Triton were also analyzed in order to evaluate the highest possible release of the analyzed molecules.
The release of β-hexosaminidase during degranulation was monitored on RBL-SX38 cell supernatant added with […]-N-acetyl-β-D-glucosamine (Sigma-Aldrich) in 0.1 M citrate buffer (pH 6.2) and incubated at 37° C. for 120 min. The reaction was terminated using 0.1M carbonate buffer (pH 10), and the absorbance was read at 405 nm (OD405).
The supernatant of untreated cells was used as negative control. The maximal stimulation of RBL-SX38 was evaluated on a 1% Triton X-100 lysate of the cell monolayer.
Sodium hyaluronate in serial dilutions, as indicated in the following Table 11, was also used as a control of the inhibition of basophil degranulation.
The inhibition degranulation percentage of activated basophil with IgE receptor has been calculated with the following formula: […]

With CCCCCCCCCCCCOS(=O)(=O)[O-].[Na+] [PC, sodium dodecyl sulphate] the “Mean relative viability (%)” value [1] was 2.16% and the “Mean IL-1α release (%)” value [2] was 235.35%.

For CCCCCCCCCCCCOS(=O)(=O)[O-].[Na+] [Positive control (PC), sodium lauryl sulfate], the viability at 70 min, 0.3 % [3] was 47.4%.

In the case of “Positive control: positive control of Example 10: cells treated with human insulin”, the “% cell viability (ds)” value ([4]; 24 hours) is reported as 136.73%, the “% cell viability (ds)” value ([4]; 48 hours) is reported as 136.72 (8.16) % and the “IL-1α, 6 hours” value ([5]; culture medium at 6 hours) is reported as 105.57 pg/mL. For the same compound, the “IL-1α, 24 hours” value ([5]; culture medium at 24 hours) was 597.32 pg/mL, the “% protein synthesis (ds)” value ([6]; 24 hours) was 140.65% and the “% protein synthesis (ds)” value ([6]; 48 hours) was 149.65 (10.83) %.

For “Sodium hyaluronate [Hyaluronic acid (HA)]”, the OD405 ([7]; 1.25 mg/ml + positive control (anti-human IgE receptor)) was 0.879, the OD405 ([7]; 1.25 mg/ml, sample alone (spontaneous degranulation)) was 0.086 and the “% degranulation inhibition” value ([7]; 1.25 mg/ml) was 15.7%. For the same compound, the OD405 ([7]; 2.5 mg/ml + positive control (anti-human IgE receptor)) was 0.690, the OD405 ([7]; 2.5 mg/ml, sample alone (spontaneous degranulation)) was 0.084 and the “% degranulation inhibition” value ([7]; 2.5 mg/ml) was 35.3%. The OD405 ([7]; 5 mg/ml + positive control (anti-human IgE receptor)) was 0.527, the OD405 ([7]; 5 mg/ml, sample alone (spontaneous degranulation)) was 0.077 and the “% degranulation inhibition” value ([7]; 5 mg/ml) was 52.3%. For the same compound, the OD405 ([7]; 10 mg/ml + positive control (anti-human IgE receptor)) was 0.255, the OD405 ([7]; 10 mg/ml, sample alone (spontaneous degranulation)) was 0.065 and the “% degranulation inhibition” value ([7]; 10 mg/ml) was 80.6%.

Triton X-100 gave an OD405 ([7]; controls: maximal degranulation by anti-human IgE receptor antibodies, 1% Triton X-100 lysate, negative control 0.068) of 1.852.
